# Laboratory results as given in patent US12448369B2 (Edgewise Therapeutics, Inc., priority 2023, dated 2025).
# Tested on: Rabbit Psoas myofibrils (skeletal myosin ATPase)
# Assay: Myofibril ATPase assay, rabbit psoas (skeletal) myofibrils
# Type: biochemical
# Details: Y75 value (no ‡ mark); rabbit psoas myofibrils
# Outline: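 Values derive from concentration–response fits of NADH consumption rates at 340 nm, normalized to vehicle-only wells, as Y75 or Y125. Myofibril ATP turnover was linked to NADH via PK/LDH in Ca/EGTA-buffered PIPES, pH 7.0, and read over 75 min.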
row,SMILES,Skeletal EC25 [µM]
1,Cc1c(CC(=O)N[C@H](C)c2ccc(C#N)cn2)c(=O)[nH]c2cccc(C#N)c12 [compound 1076],0.35
2,Cc1cc(C#N)ncc1[C@H](C)NC(=O)Cc1c(C)c2c(C)c(F)ccc2[nH]c1=O [compound 1045],0.44
3,C[C@@H](NC(=O)Cc1cc2cc(F)c(F)cc2[nH]c1=O)c1ccc(C#N)cn1 [compound 1114],22.82

# Same assay, conditions: Y75 value: concentration required to reduce myosin ATP-ase activity by 25%; Rabbit Psoas Prep pCa 25 GEOM_MEAN
row,SMILES,Skeletal EC25 [µM]
1,"C[C@H](NC(=O)Cc1cc2c(F)c(F)ccc2[nH]c1=O)c1nc(C#N)cs1 (single isomer, unassigned) [compound 4008]",4.42

# Same assay, conditions: rabbit psoas myofibrils; Y75 value
row,SMILES,Skeletal EC25 [µM]
1,"Cc1c(CC(=O)N[C@H](C)c2ccc(C#N)cc2F)c(=O)[nH]c2ccnc(C#N)c12 (single isomer, unassigned) [compound 282]",0.35
2,C[C@H](NC(=O)Cc1c(Cl)c2cnccc2[nH]c1=O)c1ccc(C#N)cn1 [compound 454],4.25
3,Cc1c(CC(=O)N[C@H](C)c2cnc(C#N)nc2)c(=O)[nH]c2ccc(C(F)(F)F)nc12 [compound 457],100.00
4,Cc1c(CC(=O)N[C@@H](C)c2ncc(C#N)cc2F)c(=O)[nH]c2ccc(OC(F)(F)F)nc12 [compound 456],0.53
5,"Cc1c([C@@H](C)C(=O)N[C@@H](C)c2ccc(F)cc2F)c(=O)[nH]c2ccnc(OC(F)(F)F)c12 (single isomer, unassigned) [compound 347]",0.35
6,Cc1ccc2[nH]c(=O)c(CC(=O)N[C@H](C)c3ncc(C#N)cc3F)cc2n1 [compound 462],100.00
7,"Cc1nccc2[nH]c(=O)c(C(F)(F)C(=O)N[C@H](C)c3cnc(C#N)cn3)c(C)c12 (single isomer, unassigned) [compound 3520]",0.25
8,"Cc1nccc2[nH]c(=O)c(CC(=O)N[C@@H](C)c3ccc(S(C)(=O)=O)cc3F)c(C)c12 (single isomer, unassigned) [compound 207]",1.32
9,"COc1nccc2[nH]c(=O)c(CC(=O)N[C@H](C)c3ncc(C#N)cn3)c(C(F)(F)F)c12 (single isomer, unassigned) [compound 3007]",100.00
10,Cc1c(CC(=O)N[C@@H](C)c2ccc(C#N)cn2)c(=O)[nH]c2ccncc12 [compound 467],16.00
11,Cc1c(CC(=O)N[C@H](C)c2ccc(C#N)cc2F)c(=O)[nH]c2ccnc(OC3CC3)c12 [compound 201],1.02
12,"Cc1nccc2[nH]c(=O)c(CC(=O)N[C@H](c3ccc(F)cc3F)C(C)(C)O)c(C)c12 (single isomer, unassigned) [compound 272]",100.00
13,"COc1cccc([C@@H](C)NC(=O)Cc2c(C)c3c(C)nccc3[nH]c2=O)c1 (single isomer, unassigned) [compound 314]",100.00
14,"Cc1c([C@H](C)C(=O)N[C@@H](C)c2ccc(F)cc2F)c(=O)[nH]c2ccnc(Cl)c12 (single isomer, unassigned) [compound 366]",0.04
15,Cc1c(CC(=O)N[C@H](C)c2ncc(C#N)cc2F)c(=O)[nH]c2ccc(OC(F)(F)F)nc12 [compound 455],5.74

# Tested on: Porcine atria myofibrils (atrial myosin ATPase)
# Assay: Myofibril ATPase assay, porcine atria myofibrils
# Type: biochemical
# Details: Y75 value (no ‡ mark); porcine atria myofibrils
# Outline: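 Atrial myofibril ATPase measured by NADH-coupled absorbance at 340 nm; vehicle-normalized slopes fitted to give Y75 or Y125 values.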
row,SMILES,Atrial EC25 [µM]
1,Cc1c(CC(=O)N[C@H](C)c2ccc(C#N)cn2)c(=O)[nH]c2cccc(C#N)c12 [compound 1076],1.89
2,Cc1cc(C#N)ncc1[C@H](C)NC(=O)Cc1c(C)c2c(C)c(F)ccc2[nH]c1=O [compound 1045],1.5
3,C[C@@H](NC(=O)Cc1cc2cc(F)c(F)cc2[nH]c1=O)c1ccc(C#N)cn1 [compound 1114],8.40

# Same assay, conditions: Y75 value: concentration required to reduce myosin ATP-ase activity by 25%; Porcine Atria Prep pCa 25 GEOM_MEAN
row,SMILES,Atrial EC25 [µM]
1,"C[C@H](NC(=O)Cc1cc2c(F)c(F)ccc2[nH]c1=O)c1nc(C#N)cs1 (single isomer, unassigned) [compound 4008]",2.24

# Same assay, conditions: porcine atria myofibrils; Y75 value (75% activity relative to no compound)
row,SMILES,Atrial EC25 [µM]
1,"Cc1c(CC(=O)N[C@H](C)c2ccc(C#N)cc2F)c(=O)[nH]c2ccnc(C#N)c12 (single isomer, unassigned) [compound 282]",1.55
2,C[C@H](NC(=O)Cc1c(Cl)c2cnccc2[nH]c1=O)c1ccc(C#N)cn1 [compound 454],7.21
3,Cc1c(CC(=O)N[C@H](C)c2cnc(C#N)nc2)c(=O)[nH]c2ccc(C(F)(F)F)nc12 [compound 457],30.66
4,Cc1c(CC(=O)N[C@@H](C)c2ncc(C#N)cc2F)c(=O)[nH]c2ccc(OC(F)(F)F)nc12 [compound 456],0.66
5,"Cc1c([C@@H](C)C(=O)N[C@@H](C)c2ccc(F)cc2F)c(=O)[nH]c2ccnc(OC(F)(F)F)c12 (single isomer, unassigned) [compound 347]",0.94
6,Cc1ccc2[nH]c(=O)c(CC(=O)N[C@H](C)c3ncc(C#N)cc3F)cc2n1 [compound 462],65.72
7,"Cc1nccc2[nH]c(=O)c(C(F)(F)C(=O)N[C@H](C)c3cnc(C#N)cn3)c(C)c12 (single isomer, unassigned) [compound 3520]",2.38
8,"Cc1nccc2[nH]c(=O)c(CC(=O)N[C@@H](C)c3ccc(S(C)(=O)=O)cc3F)c(C)c12 (single isomer, unassigned) [compound 207]",100.00
9,"COc1nccc2[nH]c(=O)c(CC(=O)N[C@H](C)c3ncc(C#N)cn3)c(C(F)(F)F)c12 (single isomer, unassigned) [compound 3007]",100.00
10,Cc1c(CC(=O)N[C@@H](C)c2ccc(C#N)cn2)c(=O)[nH]c2ccncc12 [compound 467],100.00
11,Cc1c(CC(=O)N[C@H](C)c2ccc(C#N)cc2F)c(=O)[nH]c2ccnc(OC3CC3)c12 [compound 201],100.00
12,"Cc1nccc2[nH]c(=O)c(CC(=O)N[C@H](c3ccc(F)cc3F)C(C)(C)O)c(C)c12 (single isomer, unassigned) [compound 272]",100.00
13,"COc1cccc([C@@H](C)NC(=O)Cc2c(C)c3c(C)nccc3[nH]c2=O)c1 (single isomer, unassigned) [compound 314]",100.00
14,"Cc1c([C@H](C)C(=O)N[C@@H](C)c2ccc(F)cc2F)c(=O)[nH]c2ccnc(Cl)c12 (single isomer, unassigned) [compound 366]",0.14
15,Cc1c(CC(=O)N[C@H](C)c2ncc(C#N)cc2F)c(=O)[nH]c2ccc(OC(F)(F)F)nc12 [compound 455],7.11

# Target: T1, Porcine ventricle myofibrils (ventricular myosin ATPase) (Sus scrofa, UniProt P79293)
# T1 construct: Myofibrils from porcine cardiac muscle was isolated from the left ventricle of Yucatan minipigs; tissue Exemplar Genetics; host or cells: left ventricle of Yucatan minipigs, myofibrils prepared in house
# T1 sequence (P79293 whole entry): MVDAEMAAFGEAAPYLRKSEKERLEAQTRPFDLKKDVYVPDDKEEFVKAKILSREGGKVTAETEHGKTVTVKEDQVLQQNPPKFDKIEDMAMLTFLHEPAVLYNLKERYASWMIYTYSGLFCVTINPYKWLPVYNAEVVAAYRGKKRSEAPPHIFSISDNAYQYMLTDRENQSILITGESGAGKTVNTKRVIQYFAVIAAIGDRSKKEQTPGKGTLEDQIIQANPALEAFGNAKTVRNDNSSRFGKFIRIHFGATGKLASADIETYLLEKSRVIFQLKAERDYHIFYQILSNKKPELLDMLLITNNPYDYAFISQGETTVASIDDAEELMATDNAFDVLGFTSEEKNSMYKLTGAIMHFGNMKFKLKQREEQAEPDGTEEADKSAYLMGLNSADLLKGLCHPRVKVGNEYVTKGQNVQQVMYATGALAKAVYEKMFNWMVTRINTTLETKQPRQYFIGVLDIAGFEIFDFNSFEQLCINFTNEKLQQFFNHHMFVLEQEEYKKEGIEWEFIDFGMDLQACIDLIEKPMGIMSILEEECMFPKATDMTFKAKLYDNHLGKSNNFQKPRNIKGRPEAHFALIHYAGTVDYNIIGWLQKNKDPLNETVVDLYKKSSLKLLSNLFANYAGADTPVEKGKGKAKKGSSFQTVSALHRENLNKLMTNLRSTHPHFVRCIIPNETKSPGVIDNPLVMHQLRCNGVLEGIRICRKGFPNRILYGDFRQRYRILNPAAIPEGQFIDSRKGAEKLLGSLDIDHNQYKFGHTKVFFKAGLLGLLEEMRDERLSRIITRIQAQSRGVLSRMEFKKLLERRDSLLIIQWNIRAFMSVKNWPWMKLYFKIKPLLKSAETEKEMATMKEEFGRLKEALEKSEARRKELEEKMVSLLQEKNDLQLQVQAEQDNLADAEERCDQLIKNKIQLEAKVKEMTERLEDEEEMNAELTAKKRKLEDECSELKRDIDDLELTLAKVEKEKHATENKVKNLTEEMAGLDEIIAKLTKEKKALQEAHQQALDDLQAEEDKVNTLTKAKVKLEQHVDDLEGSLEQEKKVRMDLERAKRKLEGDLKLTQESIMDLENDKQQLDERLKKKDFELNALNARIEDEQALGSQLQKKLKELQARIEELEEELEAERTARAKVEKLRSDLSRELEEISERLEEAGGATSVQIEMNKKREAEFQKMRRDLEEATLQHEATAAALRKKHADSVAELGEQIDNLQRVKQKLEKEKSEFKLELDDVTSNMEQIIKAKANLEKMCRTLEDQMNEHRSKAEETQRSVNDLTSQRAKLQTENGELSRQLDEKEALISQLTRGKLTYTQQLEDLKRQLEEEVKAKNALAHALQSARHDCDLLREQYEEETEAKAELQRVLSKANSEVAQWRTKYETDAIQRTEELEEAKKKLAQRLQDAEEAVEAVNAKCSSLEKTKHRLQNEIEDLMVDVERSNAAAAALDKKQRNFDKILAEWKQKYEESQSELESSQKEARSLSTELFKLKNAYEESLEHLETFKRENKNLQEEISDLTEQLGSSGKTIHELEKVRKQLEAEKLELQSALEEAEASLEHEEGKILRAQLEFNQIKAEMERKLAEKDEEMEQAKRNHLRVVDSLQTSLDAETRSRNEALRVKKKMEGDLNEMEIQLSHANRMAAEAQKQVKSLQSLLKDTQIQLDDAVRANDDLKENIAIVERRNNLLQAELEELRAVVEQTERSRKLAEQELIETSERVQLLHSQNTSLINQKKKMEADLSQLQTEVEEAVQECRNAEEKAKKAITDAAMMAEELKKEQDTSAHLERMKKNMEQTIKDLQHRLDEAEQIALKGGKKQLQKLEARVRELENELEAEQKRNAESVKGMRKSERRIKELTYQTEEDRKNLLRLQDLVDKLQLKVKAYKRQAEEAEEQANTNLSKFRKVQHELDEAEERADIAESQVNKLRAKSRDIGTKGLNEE
# Assay: Myofibril ATPase assay, porcine ventricle myofibrils
# Type: biochemical, porcine (Yucatan minipigs)
# Details: Y75 value (no ‡ mark); porcine ventricle myofibrils
# Outline: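 ATPase activity of porcine left-ventricle myofibrils (Yucatan minipig) was followed through PK-LDH coupling as NADH loss at 340 nm, read every 1.5-2 min for 75 min. Slopes were normalised to vehicle wells and fitted to a 4-parameter logistic model. Values are Y75, the concentration giving a 25% drop in activity, or Y125 for activators.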
row,SMILES,Ventricular EC25 [µM]
1,Cc1c(CC(=O)N[C@H](C)c2ccc(C#N)cn2)c(=O)[nH]c2cccc(C#N)c12 [compound 1076],1.49
2,Cc1cc(C#N)ncc1[C@H](C)NC(=O)Cc1c(C)c2c(C)c(F)ccc2[nH]c1=O [compound 1045],1.7
3,C[C@@H](NC(=O)Cc1cc2cc(F)c(F)cc2[nH]c1=O)c1ccc(C#N)cn1 [compound 1114],8.08

# Same assay, conditions: Y75 value: concentration required to reduce myosin ATP-ase activity by 25%; Porcine Ventricle Prep pCa 25 GEOM_MEAN
row,SMILES,Ventricular EC25 [µM]
1,"C[C@H](NC(=O)Cc1cc2c(F)c(F)ccc2[nH]c1=O)c1nc(C#N)cs1 (single isomer, unassigned) [compound 4008]",2.08

# Same assay, conditions: porcine ventricle myofibrils; Y75 value
row,SMILES,Ventricular EC25 [µM]
1,"Cc1c(CC(=O)N[C@H](C)c2ccc(C#N)cc2F)c(=O)[nH]c2ccnc(C#N)c12 (single isomer, unassigned) [compound 282]",1.16
2,C[C@H](NC(=O)Cc1c(Cl)c2cnccc2[nH]c1=O)c1ccc(C#N)cn1 [compound 454],52.30
3,Cc1c(CC(=O)N[C@H](C)c2cnc(C#N)nc2)c(=O)[nH]c2ccc(C(F)(F)F)nc12 [compound 457],100.00
4,Cc1c(CC(=O)N[C@@H](C)c2ncc(C#N)cc2F)c(=O)[nH]c2ccc(OC(F)(F)F)nc12 [compound 456],3.69
5,"Cc1c([C@@H](C)C(=O)N[C@@H](C)c2ccc(F)cc2F)c(=O)[nH]c2ccnc(OC(F)(F)F)c12 (single isomer, unassigned) [compound 347]",20.36
6,Cc1ccc2[nH]c(=O)c(CC(=O)N[C@H](C)c3ncc(C#N)cc3F)cc2n1 [compound 462],100.00
7,"Cc1nccc2[nH]c(=O)c(C(F)(F)C(=O)N[C@H](C)c3cnc(C#N)cn3)c(C)c12 (single isomer, unassigned) [compound 3520]",4.50
8,"Cc1nccc2[nH]c(=O)c(CC(=O)N[C@@H](C)c3ccc(S(C)(=O)=O)cc3F)c(C)c12 (single isomer, unassigned) [compound 207]",100.00
9,"COc1nccc2[nH]c(=O)c(CC(=O)N[C@H](C)c3ncc(C#N)cn3)c(C(F)(F)F)c12 (single isomer, unassigned) [compound 3007]",5.73
10,Cc1c(CC(=O)N[C@@H](C)c2ccc(C#N)cn2)c(=O)[nH]c2ccncc12 [compound 467],100.00
11,Cc1c(CC(=O)N[C@H](C)c2ccc(C#N)cc2F)c(=O)[nH]c2ccnc(OC3CC3)c12 [compound 201],100.00
12,"Cc1nccc2[nH]c(=O)c(CC(=O)N[C@H](c3ccc(F)cc3F)C(C)(C)O)c(C)c12 (single isomer, unassigned) [compound 272]",100.00
13,"COc1cccc([C@@H](C)NC(=O)Cc2c(C)c3c(C)nccc3[nH]c2=O)c1 (single isomer, unassigned) [compound 314]",100.00
14,"Cc1c([C@H](C)C(=O)N[C@@H](C)c2ccc(F)cc2F)c(=O)[nH]c2ccnc(Cl)c12 (single isomer, unassigned) [compound 366]",1.48
15,Cc1c(CC(=O)N[C@H](C)c2ncc(C#N)cc2F)c(=O)[nH]c2ccc(OC(F)(F)F)nc12 [compound 455],100.00
